Experimental data as given in PubChem BioAssay (NCI).
“And” between values parts separate entries of the source, which are not always exact repeats. Identical values can stand only once.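 Compound exposure: 48 hours, 5 concentrations, 96-well plates. Abbreviation: GI50, concentration required for 50% inhibition of growth. TGI: total growth inhibition.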

Tests used:
Assay in all cases: growth of human tumour cells (NCI), 48 h
[1] = tested on: 786-0 renal
[2] = tested on: A498 renal
[3] = tested on: A549 NSCLC
[4] = tested on: ACHN renal
[5] = tested on: BT-549 breast
[6] = tested on: CAKI-1 renal
[7] = tested on: CCRF-CEM leukemia
[8] = tested on: COLO 205 colon
[9] = tested on: DLD-1 colon
[10] = tested on: DMS 114 small cell lung
[11] = tested on: DU-145 prostate
[12] = tested on: EKVX NSCLC
[13] = tested on: HCC-2998 colon
[14] = tested on: HCT-116 colon
[15] = tested on: HCT-15 colon
[16] = tested on: HL-60(TB) leukemia
[17] = tested on: HOP-18 NSCLC
[18] = tested on: HOP-62 NSCLC
[19] = tested on: HOP-92 NSCLC
[20] = tested on: HS 578T breast
[21] = tested on: HT29 colon
[22] = tested on: IGROV1 ovarian
[23] = tested on: K-562 leukemia
[24] = tested on: KM12 colon
[25] = tested on: KM20L2 colon
[26] = tested on: LOX IMVI melanoma
[27] = tested on: LXFL 529 NSCLC
[28] = tested on: M14 melanoma
[29] = tested on: M19-MEL melanoma
[30] = tested on: MALME-3M melanoma
[31] = tested on: MCF7 breast
[32] = tested on: MDA-MB-231 breast
[33] = tested on: MDA-MB-435
[34] = tested on: MDA-N
[35] = tested on: MOLT-4 leukemia
[36] = tested on: NCI-H226 lung
[37] = tested on: NCI-H23 lung
[38] = tested on: NCI-H460 lung
[39] = tested on: NCI-H522 lung
[40] = tested on: NCI/ADR-RES ovarian
[41] = tested on: OVCAR-3 ovarian
[42] = tested on: OVCAR-4 ovarian
[43] = tested on: OVCAR-5 ovarian
[44] = tested on: OVCAR-8 ovarian
[45] = tested on: PC-3 prostate
[46] = tested on: RPMI-8226 leukemia
[47] = tested on: RXF 393 renal
[48] = tested on: SF-268 CNS
[49] = tested on: SF-295 CNS
[50] = tested on: SF-539 CNS
[51] = tested on: SK-MEL-2 melanoma
[52] = tested on: SK-MEL-28 melanoma
[53] = tested on: SK-MEL-5 melanoma
[54] = tested on: SK-OV-3 ovarian
[55] = tested on: SN12C renal
[56] = tested on: SNB-19 CNS
[57] = tested on: SNB-75 CNS
[58] = tested on: SNB-78 CNS
[59] = tested on: SR leukemia
[60] = tested on: SW-620 colon
[61] = tested on: T-47D breast
[62] = tested on: TK-10 renal
[63] = tested on: U251 CNS
[64] = tested on: UACC-257 melanoma
[65] = tested on: UACC-62 melanoma
[66] = tested on: UO-31 renal
[67] = tested on: XF 498 CNS

For `Cc1cc(NC(=O)NC(=O)c2ccccc2N(C)C)ccc1Oc1ncc(Br)cn1`, the GI50 [1] was 322 nM, the TGI [1] was 44.6 µM and the TGI [2] was 6.71 µM. It also gave a GI50 [3] of 584 nM, a TGI [3] greater than 63.1 µM and a GI50 [4] of 404 nM. For the same compound, the TGI [4] was greater than 68.1 µM, the TGI [5] was greater than 46.4 µM and the GI50 [6] was 588 nM and 402 nM. For the same compound, the TGI [6] was greater than 100 µM, the TGI [7] was 3.5 µM and 11.8 µM and the GI50 [8] was 266 nM. The GI50 [9] was 527 nM, the TGI [9] was greater than 100 µM and the GI50 [10] was 478 nM. The TGI [11] was greater than 63.1 µM, the TGI [12] was greater than 68.1 µM and the GI50 [13] was 1100 nM. It also gave a TGI [13] of 11.8 µM, a GI50 [14] of 389 nM and a TGI [14] of 50.2 µM. For the same compound, the TGI [15] was greater than 68.1 µM, the GI50 [16] was 87.9 nM and the TGI [16] was 388 nM and 981 nM. It also gave a TGI [17] greater than 100 µM, a TGI [18] of 57.9 µM and a GI50 [19] of 5.5 µM. The TGI [19] was 46.2 µM, the TGI [20] was greater than 100 µM and the TGI [21] was 15.2 µM. It also gave a GI50 [22] of 356 nM, a TGI [22] greater than 63.1 µM and a GI50 [23] of 210 nM. For the same compound, the TGI [23] was 27.3 µM, the TGI [24] was greater than 38 µM and the TGI [25] was 796 nM. For the same compound, the GI50 [26] was 582 nM, the TGI [26] was greater than 63.1 µM and the GI50 [27] was 658 nM. The TGI [27] was greater than 100 µM, the GI50 [28] was 428 nM and the TGI [28] was greater than 63.1 µM. The GI50 [29] was 2510 nM, the TGI [29] was greater than 100 µM and the GI50 [30] was 2220 nM. For the same compound, the TGI [30] was greater than 100 µM, the TGI [31] was 29.2 µM and the TGI [32] was 52.5 µM. For the same compound, the TGI [33] was 2840 nM, the TGI [34] was 281 nM and the GI50 [35] was 533 nM. For the same compound, the TGI [35] was 39.7 µM, the GI50 [36] was 1880 nM and the TGI [36] was greater than 90 µM. It also gave a GI50 [37] of 2510 nM, a TGI [37] of 53.4 µM and a GI50 [38] of 343 nM. The TGI [38] was 55.5 µM, the GI50 [39] was 164 nM and the TGI [39] was 408 nM and 587 nM. It also gave a TGI [40] of 24.6 µM, a TGI [41] of 11.1 µM and a GI50 [42] of 3.45 µM. The TGI [42] was greater than 68.1 µM, the GI50 [43] was 2610 nM and the TGI [43] was greater than 67.5 µM. For the same compound, the GI50 [44] was 614 nM, the TGI [44] was greater than 68.1 µM and the TGI [45] was greater than 63.1 µM. For the same compound, the GI50 [46] was 517 nM, the TGI [46] was 39.4 µM and the GI50 [47] was 242 nM. For the same compound, the TGI [47] was 0.698 µM and 6.37 µM, the TGI [48] was greater than 68.1 µM and the TGI [49] was 21.8 µM. The GI50 [50] was 208 nM, the TGI [50] was 548 nM and 1030 nM and the TGI [51] was greater than 46.4 µM. For the same compound, the TGI [52] was greater than 63.1 µM, the TGI [53] was 4.11 µM and the TGI [54] was 16.8 µM. It also gave a GI50 [55] of 578 nM, a TGI [55] greater than 100 µM and a GI50 [56] of 749 nM. For the same compound, the TGI [56] was greater than 81.5 µM, the GI50 [57] was 110 nM and the TGI [57] was 428 nM and 555 nM. For the same compound, the TGI [58] was greater than 100 µM, the GI50 [59] was 135 nM and the TGI [60] was greater than 71.1 µM. It also gave a TGI [61] greater than 56.2 µM, a GI50 [62] of 984 nM and a TGI [62] greater than 68.1 µM. The GI50 [63] was 436 nM, the TGI [63] was 39.8 µM and the TGI [64] was greater than 100 µM. The TGI [65] was greater than 100 µM, the GI50 [66] was 584 nM and the TGI [66] was greater than 63.1 µM. For the same compound, the GI50 [67] was 894 nM.
